Assays:
MDM2 = MDM2 (Homo sapiens, UniProt Q00987); assay: Competitive fluorescence polarization assay for MDM2; assay type: binding; conditions: competitive FP assay, MDM2; for IC50: read-out: IC50 (MDM2); for Ki: read-out: Ki (MDM2)
MDMX = molecular target: T1, MDMX (Homo sapiens, UniProt O15151); assay: Competitive fluorescence polarization assay for MDMX; assay type: binding; conditions: competitive FP assay; for IC50: read-out: IC50 (MDMX); for Ki: read-out: Ki (MDMX)
T1 sequence (O15151 1-125): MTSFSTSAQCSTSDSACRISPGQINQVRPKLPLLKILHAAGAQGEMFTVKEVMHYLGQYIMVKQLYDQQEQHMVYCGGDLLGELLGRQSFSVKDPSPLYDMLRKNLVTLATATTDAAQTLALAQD

Sequence of MDM2 (Q00987 1-125): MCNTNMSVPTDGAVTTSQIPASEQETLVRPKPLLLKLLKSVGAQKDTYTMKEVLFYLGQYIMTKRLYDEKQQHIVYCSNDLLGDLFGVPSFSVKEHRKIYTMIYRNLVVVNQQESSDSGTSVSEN

| IC50 (MDM2) [nM] | Ki (MDM2) [nM] | IC50 (MDMX) [nM] | Ki (MDMX) [nM] | Structure (SMILES) |
| --- | --- | --- | --- | --- |
| < 10 | < 10 | 100 to 1000 | 10 to 100 | CC(=O)N[C@@H](CC(C)C)C(=O)N[C@H](C(=O)N[C@@H](Cc1ccccc1)C(=O)N[C@]1(C)CCCCCCC=CCCC[C@@](C)(C(=O)N[C@@H](C)C(=O)N[C@@H](C)C(=O)N[C@@H](CC(C)C)C(=O)N[C@H](C)C(N)=O)NC(=O)[C@H](CC(C)C)NC(=O)[C@H](CCC(N)=O)NC(=O)[C@H](C)NC(=O)[C@H](Cc2c[nH]c3ccccc23)NC(=O)[C@H](Cc2c[nH]cn2)NC(=O)[C@H](CCC(=O)O)NC1=O)[C@@H](C)O (single isomer, unassigned) [compound 227] |
| 10 to 100 | < 10 | 10 to 100 | < 10 | CC(=O)N[C@@H](CC(C)C)C(=O)N[C@H](C(=O)N[C@@H](Cc1ccccc1)C(=O)N[C@]1(C)CCCCCCC=CCCC[C@@](C)(C(=O)N[C@@H](CO)C(=O)N[C@@H](C)C(=O)N[C@@H](C)C(N)=O)NC(=O)[C@H](CC2CCC2)NC(=O)[C@H](CCC(N)=O)NC(=O)[C@H](C)NC(=O)[C@H](Cc2c[nH]c3ccccc23)NC(=O)[C@H](Cc2ccc(C(=O)O)cc2)NC(=O)[C@H](CCC(=O)O)NC1=O)[C@@H](C)O (single isomer, unassigned) [compound 291] |
| < 10 | < 10 | 10 to 100 | 10 to 100 | CC(=O)N[C@@H](CC(C)C)C(=O)N[C@H](C(=O)N[C@@H](Cc1ccccc1)C(=O)N[C@]1(C)CCCCCCC=CCCC[C@@](C)(C(=O)N[C@@H](CO)C(=O)N[C@@H](C)C(=O)N[C@@H](C)C(N)=O)NC(=O)[C@H](CC2CCC2)NC(=O)[C@H](CCC(N)=O)NC(=O)[C@H](CO)NC(=O)[C@H](Cc2c[nH]c3ccccc23)NC(=O)[C@H](Cc2ccc(O)cc2)NC(=O)[C@H](CCC(=O)O)NC1=O)[C@@H](C)O (single isomer, unassigned) [compound 293] |
| 100 to 1000 | 10 to 100 | 100 to 1000 | 10 to 100 | CCCC[C@H](NC(=O)[C@H](C)NC(=O)[C@H](C)NC(=O)[C@]1(C)CCCC=CCCCCCC[C@@](C)(NC(=O)[C@H](Cc2ccc(F)c(F)c2)NC(=O)[C@@H](NC(=O)[C@H](CC(C)C)NC(C)=O)[C@@H](C)O)C(=O)N[C@@H](C)C(=O)N[C@@H](Cc2ccc(O)cc2)C(=O)N[C@@H](Cc2c[nH]c3ccccc23)C(=O)N[C@@H](C)C(=O)N[C@@H](CCC(N)=O)C(=O)N[C@@H](CCC(C)C)C(=O)N1)C(=O)N[C@@H](C)C(N)=O (single isomer, unassigned) [compound 308] |
| 10 to 100 | < 10 | 10 to 100 | 10 to 100 | CCCC[C@H](NC(=O)[C@H](C)NC(=O)[C@H](C)NC(=O)[C@]1(C)CCCC=CCCCCCC[C@@](C)(NC(=O)[C@H](Cc2ccccc2)NC(=O)[C@@H](NC(=O)[C@H](CC(C)C)NC(C)=O)[C@@H](C)O)C(=O)N[C@@H](C)C(=O)N[C@@H](Cc2ccc(C(=O)O)cc2)C(=O)N[C@@H](Cc2c[nH]c3ccccc23)C(=O)N[C@@H](C)C(=O)N[C@@H](CCC(N)=O)C(=O)N[C@@H](CCC(C)C)C(=O)N1)C(=O)N[C@@H](C)C(N)=O (single isomer, unassigned) [compound 310] |
| 10 to 100 | 10 to 100 | 100 to 1000 | 10 to 100 | CCCC[C@H](NC(=O)[C@H](C)NC(=O)[C@H](C)NC(=O)[C@]1(C)CCCC=CCCCCCC[C@@](C)(NC(=O)[C@H](Cc2ccccc2)NC(=O)[C@@H](NC(=O)[C@H](CC(C)C)NC(C)=O)[C@@H](C)O)C(=O)N[C@@H](C)C(=O)N[C@@H](Cc2ccc(O)cc2)C(=O)N[C@@H](Cc2c[nH]c3ccccc23)C(=O)N[C@@H](CO)C(=O)N[C@@H](CCC(N)=O)C(=O)N[C@@H](CCC(C)C)C(=O)N1)C(=O)N[C@@H](C)C(N)=O (single isomer, unassigned) [compound 312] |
| 10 to 100 | < 10 | 10 to 100 | 10 to 100 | CC(=O)N[C@@H](C)C(=O)N[C@@H](CC(C)C)C(=O)N[C@H](C(=O)N[C@@H](Cc1ccccc1)C(=O)N[C@]1(C)CCCCCCC=CCCC[C@@](C)(C(=O)N[C@@H](CO)C(=O)N[C@@H](C)C(=O)N[C@@H](C)C(N)=O)NC(=O)[C@H](CC2CCC2)NC(=O)[C@H](CCC(N)=O)NC(=O)[C@H](C)NC(=O)[C@H](Cc2c[nH]c3ccccc23)NC(=O)[C@H](Cc2ccc(O)cc2)NC(=O)[C@H](CCC(=O)O)NC1=O)[C@@H](C)O (single isomer, unassigned) [compound 328] |
| < 10 | < 10 | 10 to 100 | < 10 | CCCC[C@H](NC(=O)[C@H](C)NC(=O)[C@H](CO)NC(=O)[C@]1(C)CCCC=CCCCCCC[C@@](C)(NC(=O)[C@H](Cc2ccccc2)NC(=O)[C@@H](NC(=O)[C@H](CC(C)C)NC(C)=O)[C@@H](C)O)C(=O)N[C@@H](CCC(=O)O)C(=O)N[C@@H](Cc2ccc(C(=O)O)cc2)C(=O)N[C@@H](Cc2c[nH]c3cc(Cl)ccc23)C(=O)N[C@@H](C)C(=O)N[C@@H](CCC(N)=O)C(=O)N[C@@H](CC2CCC2)C(=O)N1)C(=O)N[C@@H](C)C(N)=O (single isomer, unassigned) [compound 334] |
| 100 to 1000 | 100 to 1000 | > 1000 | > 1000 | CCCC[C@H](NC(=O)[C@H](C)NC(=O)[C@H](C)NC(=O)[C@]1(C)CCCC=CCCCCCC[C@@](C)(NC(=O)[C@H](Cc2ccccc2)NC(=O)[C@@H](NC(=O)[C@H](CC(C)C)NC(C)=O)[C@@H](C)O)C(=O)N[C@@H](C)C(=O)N(C)[C@@H](Cc2ccc(O)cc2)C(=O)N[C@@H](Cc2c[nH]c3ccccc23)C(=O)N[C@@H](C)C(=O)N[C@@H](CCC(N)=O)C(=O)N[C@@H](CC(C)C)C(=O)N1)C(=O)N[C@@H](C)C(N)=O (single isomer, unassigned) [compound 384] |
| 100 to 1000 | 100 to 1000 | > 1000 | > 1000 | CCCC[C@H](NC(=O)[C@H](C)NC(=O)[C@H](C)NC(=O)[C@]1(C)CCCC=CCCCCCC[C@@](C)(NC(=O)[C@H](Cc2ccccc2)NC(=O)[C@@H](NC(=O)[C@H](CC(C)C)NC(C)=O)[C@@H](C)O)C(=O)N[C@@H](C)C(=O)N[C@@H](Cc2ccc(O)cc2)C(=O)N(C)[C@@H](Cc2c[nH]c3ccccc23)C(=O)N[C@@H](C)C(=O)N[C@@H](CCC(N)=O)C(=O)N[C@@H](CC(C)C)C(=O)N1)C(=O)N[C@@H](C)C(N)=O (single isomer, unassigned) [compound 386] |
| 10 to 100 | < 10 | 10 to 100 | 10 to 100 | CCCC[C@H](NC(=O)[C@H](C)NC(=O)[C@H](C)NC(=O)[C@]1(C)CCCC=CCCCCCC[C@@](C)(NC(=O)[C@H](Cc2ccccc2)NC(=O)[C@@H](NC(=O)[C@H](CC(C)C)NC(C)=O)[C@@H](C)O)C(=O)N[C@@H](C)C(=O)N[C@@H](Cc2ccc(O)cc2)C(=O)N[C@@H](Cc2c[nH]c3ccccc23)C(=O)NC(C)(C)C(=O)N[C@@H](CCC(N)=O)C(=O)N[C@@H](CC(C)C)C(=O)N1)C(=O)N[C@@H](C)C(N)=O (single isomer, unassigned) [compound 390] |
| < 10 | < 10 | 10 to 100 | < 10 | CCCC[C@H](NC(=O)[C@@H](C)NC(=O)[C@H](C)NC(=O)[C@]1(C)CCCC=CCCCCCC[C@@](C)(NC(=O)[C@H](Cc2ccccc2)NC(=O)[C@@H](NC(=O)[C@H](CC(C)C)NC(C)=O)[C@@H](C)O)C(=O)N[C@@H](C)C(=O)N[C@@H](Cc2ccc(O)cc2)C(=O)N[C@@H](Cc2c[nH]c3ccccc23)C(=O)N[C@@H](C)C(=O)N[C@@H](CCC(N)=O)C(=O)N[C@@H](CC(C)C)C(=O)N1)C(=O)N[C@@H](C)C(N)=O (single isomer, unassigned) [compound 394] |
| 10 to 100 | < 10 | 10 to 100 | 10 to 100 | CCCC[C@H](NC(=O)[C@H](C)NC(=O)[C@H](C)NC(=O)[C@]1(C)CCCC=CCCCCCC[C@@](C)(NC(=O)[C@H](Cc2ccccc2)NC(=O)[C@@H](NC(=O)[C@H](CC(C)C)NC(C)=O)[C@@H](C)O)C(=O)N[C@@H](C)C(=O)N[C@@H](Cc2ccc(O)cc2)C(=O)N[C@@H](Cc2c[nH]c3ccccc23)C(=O)N[C@@H](C)C(=O)N[C@@H](CCC(N)=O)C(=O)N[C@@H](CC(C)C)C(=O)N1)C(=O)NC(C)(C)C(N)=O (single isomer, unassigned) [compound 398] |
| < 10 | < 10 | < 10 | < 10 | CCCC[C@H](NC(=O)[C@H](C)NC(=O)[C@H](C)NC(=O)[C@]1(C)CCCC=CCCCCCC[C@@](C)(NC(=O)[C@H](Cc2ccccc2)NC(=O)[C@@H](NC(=O)[C@H](CC(C)C)NC(C)=O)[C@@H](C)O)C(=O)N[C@@H](C)C(=O)N[C@@H](Cc2ccc(O)cc2)C(=O)N[C@@H](Cc2c[nH]c3ccccc23)C(=O)N[C@@H](C)C(=O)N[C@@H](CCC(N)=O)C(=O)N[C@@H](CC(C)C)C(=O)N1)C(=O)N(C)CC(N)=O (single isomer, unassigned) [compound 402] |
| 10 to 100 | < 10 | 10 to 100 | < 10 | CCCC[C@H](NC(=O)[C@H](C)NC(=O)[C@H](C)NC(=O)[C@]1(C)CCCC=CCCCCCC[C@@](C)(NC(=O)[C@H](Cc2ccccc2)NC(=O)[C@@H](NC(=O)[C@H](CC(C)C)NC(C)=O)[C@@H](C)O)C(=O)N[C@@H](C)C(=O)N[C@@H](Cc2ccc(O)cc2)C(=O)N[C@@H](Cc2c[nH]c3ccccc23)C(=O)N[C@@H](C)C(=O)N[C@@H](CCC(N)=O)C(=O)N[C@@H](CC(C)C)C(=O)N1)C(=O)N[C@@H](C)C(=O)NC(C)(C)C(N)=O (single isomer, unassigned) [compound 404] |
